#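 Assay format: 96-well plates, 48-hour exposure. GI50 is the concentration that inhibits growth by half. Definition used: TGI = concentration required for complete inhibition of growth.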
# Legend:
# Assay in all cases: NCI tumour cell line growth inhibition, 48 h
# 786-0 renal = system: 786-0 renal
# A498 renal = system: A498 renal
# A549 NSCLC = system: A549 NSCLC
# ACHN renal = system: ACHN renal
# BT-549 breast = system: BT-549 breast
# CAKI-1 renal = system: CAKI-1 renal
# CCRF-CEM leukemia = system: CCRF-CEM leukemia
# COLO 205 colon = system: COLO 205 colon
# DU-145 prostate = system: DU-145 prostate
# EKVX NSCLC = system: EKVX NSCLC
# HCC-2998 colon = system: HCC-2998 colon
# HCT-116 colon = system: HCT-116 colon
# HCT-15 colon = system: HCT-15 colon
# HL-60(TB) leukemia = system: HL-60(TB) leukemia
# HOP-62 NSCLC = system: HOP-62 NSCLC
# HOP-92 NSCLC = system: HOP-92 NSCLC
# HS 578T breast = system: HS 578T breast
# HT29 colon = system: HT29 colon
# IGROV1 ovarian = system: IGROV1 ovarian
# K-562 leukemia = system: K-562 leukemia
# KM12 colon = system: KM12 colon
# LOX IMVI melanoma = system: LOX IMVI melanoma
# M14 melanoma = system: M14 melanoma
# MALME-3M melanoma = system: MALME-3M melanoma
# MCF7 breast = system: MCF7 breast
# MDA-MB-231 breast = system: MDA-MB-231 breast
# MDA-MB-435 = system: MDA-MB-435
# MDA-MB-468 breast = system: MDA-MB-468 breast
# MOLT-4 leukemia = system: MOLT-4 leukemia
# NCI-H226 lung = system: NCI-H226 lung
# NCI-H23 lung = system: NCI-H23 lung
# NCI-H460 lung = system: NCI-H460 lung
# NCI-H522 lung = system: NCI-H522 lung
# OVCAR-3 ovarian = system: OVCAR-3 ovarian
# OVCAR-4 ovarian = system: OVCAR-4 ovarian
# OVCAR-5 ovarian = system: OVCAR-5 ovarian
# OVCAR-8 ovarian = system: OVCAR-8 ovarian
# PC-3 prostate = system: PC-3 prostate
# RPMI-8226 leukemia = system: RPMI-8226 leukemia
# RXF 393 renal = system: RXF 393 renal
# SF-268 CNS = system: SF-268 CNS
# SF-295 CNS = system: SF-295 CNS
# SF-539 CNS = system: SF-539 CNS
# SK-MEL-2 melanoma = system: SK-MEL-2 melanoma
# SK-MEL-28 melanoma = system: SK-MEL-28 melanoma
# SK-MEL-5 melanoma = system: SK-MEL-5 melanoma
# SK-OV-3 ovarian = system: SK-OV-3 ovarian
# SN12C renal = system: SN12C renal
# SNB-19 CNS = system: SNB-19 CNS
# SNB-75 CNS = system: SNB-75 CNS
# SR leukemia = system: SR leukemia
# SW-620 colon = system: SW-620 colon
# T-47D breast = system: T-47D breast
# TK-10 renal = system: TK-10 renal
# U251 CNS = system: U251 CNS
# UACC-257 melanoma = system: UACC-257 melanoma
# UACC-62 melanoma = system: UACC-62 melanoma
# UO-31 renal = system: UO-31 renal
smiles,measurement,setting,value
O=C(c1ccc(Cl)cc1)C1[C@H](c2ccccc2Br)[C@@H](c2ccccc2)NC12C(=O)Nc1ccc(Cl)cc12 (stereo partly specified),GI50,786-0 renal,9.38 µM
same,TGI,786-0 renal,18.8 µM
same,GI50,A498 renal,9.4 µM
same,TGI,A498 renal,19.3 µM
same,GI50,A549 NSCLC,9.83 µM
same,TGI,A549 NSCLC,20.2 µM
same,GI50,ACHN renal,9.94 µM
same,TGI,ACHN renal,18.9 µM
same,GI50,BT-549 breast,7.87 µM
same,TGI,BT-549 breast,15.7 µM
same,GI50,CAKI-1 renal,8.96 µM
same,TGI,CAKI-1 renal,17.4 µM
same,GI50,CCRF-CEM leukemia,13.6 µM
same,TGI,CCRF-CEM leukemia,35.1 µM
same,GI50,COLO 205 colon,9.34 µM
same,TGI,COLO 205 colon,17.3 µM
same,GI50,DU-145 prostate,11.1 µM
same,TGI,DU-145 prostate,22.4 µM
same,GI50,EKVX NSCLC,10.6 µM
same,TGI,EKVX NSCLC,26 µM
same,GI50,HCC-2998 colon,9.28 µM
same,TGI,HCC-2998 colon,17.4 µM
same,GI50,HCT-116 colon,9 µM
same,TGI,HCT-116 colon,17.5 µM
same,GI50,HCT-15 colon,10.2 µM
same,TGI,HCT-15 colon,20 µM
same,GI50,HL-60(TB) leukemia,13.2 µM
same,TGI,HL-60(TB) leukemia,36.7 µM
same,GI50,HOP-62 NSCLC,8.65 µM
same,TGI,HOP-62 NSCLC,16.4 µM
same,GI50,HOP-92 NSCLC,8.37 µM
same,TGI,HOP-92 NSCLC,16.3 µM
same,GI50,HS 578T breast,11 µM
same,TGI,HS 578T breast,27.1 µM
same,GI50,HT29 colon,9.35 µM
same,TGI,HT29 colon,18.5 µM
same,GI50,IGROV1 ovarian,9.73 µM
same,TGI,IGROV1 ovarian,19.1 µM
same,GI50,K-562 leukemia,18.5 µM
same,TGI,K-562 leukemia,52.8 µM
same,GI50,KM12 colon,11.5 µM
same,TGI,KM12 colon,25.2 µM
same,GI50,LOX IMVI melanoma,9.69 µM
same,TGI,LOX IMVI melanoma,19 µM
same,GI50,M14 melanoma,9.65 µM
same,TGI,M14 melanoma,18.3 µM
same,GI50,MALME-3M melanoma,8.67 µM
same,TGI,MALME-3M melanoma,16 µM
same,GI50,MCF7 breast,11.6 µM
same,TGI,MCF7 breast,27.9 µM
same,GI50,MDA-MB-231 breast,8.98 µM
same,TGI,MDA-MB-231 breast,16.5 µM
same,GI50,MDA-MB-435,10.4 µM
same,TGI,MDA-MB-435,20.7 µM
same,GI50,MDA-MB-468 breast,9.09 µM
same,TGI,MDA-MB-468 breast,17.3 µM
same,GI50,MOLT-4 leukemia,16 µM
same,TGI,MOLT-4 leukemia,52.8 µM
same,GI50,NCI-H226 lung,8.69 µM
same,TGI,NCI-H226 lung,17.2 µM
same,GI50,NCI-H23 lung,10.1 µM
same,TGI,NCI-H23 lung,19.4 µM
same,GI50,NCI-H460 lung,9.54 µM
same,TGI,NCI-H460 lung,18.9 µM
same,GI50,NCI-H522 lung,8.67 µM
same,TGI,NCI-H522 lung,16.6 µM
same,GI50,OVCAR-3 ovarian,10.6 µM
same,TGI,OVCAR-3 ovarian,22.7 µM
same,GI50,OVCAR-4 ovarian,11.8 µM
same,TGI,OVCAR-4 ovarian,28.5 µM
same,GI50,OVCAR-5 ovarian,8.61 µM
same,TGI,OVCAR-5 ovarian,16 µM
same,GI50,OVCAR-8 ovarian,9.6 µM
same,TGI,OVCAR-8 ovarian,18 µM
same,GI50,PC-3 prostate,9.87 µM
same,TGI,PC-3 prostate,20.1 µM
same,GI50,RPMI-8226 leukemia,15.9 µM
same,TGI,RPMI-8226 leukemia,48.8 µM
same,GI50,RXF 393 renal,8.4 µM
same,TGI,RXF 393 renal,16 µM
same,GI50,SF-268 CNS,10.8 µM
same,TGI,SF-268 CNS,25.4 µM
same,GI50,SF-295 CNS,9.14 µM
same,TGI,SF-295 CNS,18.9 µM
same,GI50,SF-539 CNS,9.17 µM
same,TGI,SF-539 CNS,17 µM
same,GI50,SK-MEL-2 melanoma,9.22 µM
same,TGI,SK-MEL-2 melanoma,16.9 µM
same,GI50,SK-MEL-28 melanoma,8.66 µM
same,TGI,SK-MEL-28 melanoma,16 µM
same,GI50,SK-MEL-5 melanoma,9.44 µM
same,TGI,SK-MEL-5 melanoma,16.9 µM
same,GI50,SK-OV-3 ovarian,12.4 µM
same,TGI,SK-OV-3 ovarian,34.4 µM
same,GI50,SN12C renal,9.05 µM
same,TGI,SN12C renal,16.4 µM
same,GI50,SNB-19 CNS,10.3 µM
same,TGI,SNB-19 CNS,23.6 µM
same,GI50,SNB-75 CNS,8.31 µM
same,TGI,SNB-75 CNS,26.9 µM
same,GI50,SR leukemia,13.5 µM
same,TGI,SR leukemia,32 µM
same,GI50,SW-620 colon,9.58 µM
same,TGI,SW-620 colon,19.2 µM
same,GI50,T-47D breast,9.06 µM
same,TGI,T-47D breast,18.2 µM
same,GI50,TK-10 renal,8.71 µM
same,TGI,TK-10 renal,17 µM
same,GI50,U251 CNS,9.17 µM
same,TGI,U251 CNS,16.8 µM
same,GI50,UACC-257 melanoma,8.88 µM
same,TGI,UACC-257 melanoma,16.7 µM
same,GI50,UACC-62 melanoma,8.63 µM
same,TGI,UACC-62 melanoma,16 µM
same,GI50,UO-31 renal,8.01 µM
same,TGI,UO-31 renal,15.1 µM

# Reference: PubChem BioAssay (NCI)
